Measurements: patent publication US9073940B2, “Tricyclic pyrazol amine derivatives” (MERCK SERONO SA, priority 2009, dated 2015)
Where a name gives a salt, the structure may show the parent alone.

Tested on: 4 PI3K isoforms (Human recombinant GST-PI3K)
Test: PI3K scintillation proximity assay, best IC50 obtained with the four isoforms (alpha, beta, delta, gamma)
Format: biochemical
Conditions: best IC50 obtained with the four isoforms of PI3K; read-out: Best potency measured on the 4 PI3K isoforms

Molecule	IC50 [nM]
3-(Morpholin-4-ylcarbonyl)-1-phenyl-4H- imidazo[5,1-c][1,4]benzothiazine 5,5-dioxide [Example 486]	2740
O=C(c1nn(C2CCCN(CCN3CC[C@@H](F)C3)C2)c2c1CS(=O)(=O)c1ccccc1-2)N1CCOCC1 (single isomer, unassigned) [Example 283]	34
O=C(c1nn([C@H]2CCCN(CCC3CCOCC3)C2)c2c1CS(=O)(=O)c1c(F)cccc1-2)N1CCOCC1 (single isomer, unassigned) [Example 344, 6-fluoro-3-(morpholin-4-ylcarbonyl)-1-{1-[2-(tetrahydro-2H-pyran-4-yl)ethyl]piperidin-3-yl}-1,4-dihydrothiochromeno[4,3-c]pyrazole 5,5-dioxide]	6
COCCN1CCC[C@@H](n2nc(C(=O)N3CCOCC3)c3c2-c2ccccc2S(=O)(=O)C3)C1 (single isomer, unassigned) [Example 347, 1-[1-(2-methoxyethyl)piperidin-3-yl]-3-(morpholin-4-ylcarbonyl)-1,4-dihydrothiochromeno[4,3-c]pyrazole 5,5-dioxide]	3550
O=C(c1nn([C@@H]2CCCN(CCN3CCOCC3)C2)c2c1CS(=O)(=O)c1ccccc1-2)N1CCOCC1 (single isomer, unassigned) [Example 348, 3-(morpholin-4-ylcarbonyl)-1-[1-(2-morpholin-4-ylethyl)piperidin-3-yl]-1,4-dihydrothiochromeno[4,3-c]pyrazole 5,5-dioxide]	1280
O=C(c1nn([C@@H]2CCN(C3CCOCC3)C2)c2c1CS(=O)(=O)c1c(F)cccc1-2)N1CCOCC1 (single isomer, unassigned) [Example 353, 6-fluoro-3-(morpholin-4-ylcarbonyl)-1-[1-(tetrahydro-2H-pyran-4-yl)pyrrolidin-3-yl]-1,4-dihydrothiochromeno[4,3-c]pyrazole 5,5-dioxide hydrochloride salt]	2040
O=C(c1nn([C@@H]2CCN(CCC3CCOCC3)C2)c2c1CS(=O)(=O)c1c(F)cccc1-2)N1CCOCC1 (single isomer, unassigned) [Example 356, 6-fluoro-3-(morpholin-4-ylcarbonyl)-1-{1-[2-(tetrahydro-2H-pyran-4-yl)ethyl]pyrrolidin-3-yl}-1,4-dihydrothiochromeno[4,3-c]pyrazole 5,5-dioxide hydrochloride salt]	1690
O=C(c1nn([C@@H]2CCCNC2)c2c1CS(=O)(=O)c1ccccc1-2)N1CCOCC1 (single isomer, unassigned) [Example 358]	3000
O=C(c1nn([C@H]2CCCN(CCN3CC[C@@H](F)C3)C2)c2c1CS(=O)(=O)c1ccccc1-2)N1CCOCC1 (single isomer, unassigned) [Example 364, 1-(1-{2-[3-fluoropyrrolidin-1-yl]ethyl}piperidin-3-yl)-3-(morpholin-4-ylcarbonyl)-1,4-dihydrothiochromeno[4,3-c]pyrazole 5,5-dioxide]	14
O=C(c1nn([C@H]2CCCN(CCN3CCC(F)C3)C2)c2c1CS(=O)(=O)c1ccccc1-2)N1CCOCC1 (single isomer, unassigned) [Example 367]	32
CC1(C)CN(CCN2CCC[C@H](n3nc(C(=O)N4CCOCC4)c4c3-c3ccccc3S(=O)(=O)C4)C2)CCO1 (single isomer, unassigned) [Example 370, 1-{1-[2-(2,2-dimethylmorpholin-4-yl)ethyl]piperidin-3-yl}-3-(morpholin-4-ylcarbonyl)-1,4-dihydrothiochromeno[4,3-c]pyrazole 5,5-dioxide]	73

More lines, in order of falling IC50, values ahead:

IC50 [nM]	Molecule
7970	O=C(c1nn([C@@H]2CCCN(CCF)C2)c2c1CS(=O)(=O)c1ccccc1-2)N1CCOCC1 (single isomer, unassigned) [Example 366]
2200	O=C(c1nn([C@@H]2CCCN(CCC3CCOCC3)C2)c2c1CS(=O)(=O)c1ccccc1-2)N1CCOCC1 (single isomer, unassigned) [Example 307, 3-(morpholin-4-ylcarbonyl)-1-{1-[2-(tetrahydro-2H-pyran-4-yl)ethyl]piperidin-3-yl}-1,4-dihydrothiochromeno[4,3-c]pyrazole 5,5-dioxide]
1920	O=C(c1nn([C@@H]2CCCN(CCC3CCOCC3)C2)c2c1CS(=O)(=O)c1c(F)cccc1-2)N1CCOCC1 (single isomer, unassigned) [Example 343, 6-fluoro-3-(morpholin-4-ylcarbonyl)-1-{1-[2-(tetrahydro-2H-pyran-4-yl)ethyl]piperidin-3-yl}-1,4-dihydrothiochromeno[4,3-c]pyrazole 5,5-dioxide hydrochloride salt]
1060	O=C(c1nn([C@H]2CCCNC2)c2c1CS(=O)(=O)c1ccccc1-2)N1CCOCC1 (single isomer, unassigned) [Example 359]
320	O=C(c1nn(C2CCCN(CCF)C2)c2c1CS(=O)(=O)c1ccccc1-2)N1CCOCC1 (single isomer, unassigned) [Example 221, 1-[1-(2-fluoroethyl)piperidin-3-yl]-3-(morpholin-4-ylcarbonyl)-1,4-dihydrothiochromeno[4,3-c]pyrazole 5,5-dioxide]
92	O=C(c1nn([C@H]2CCN(CCC3CCOCC3)C2)c2c1CS(=O)(=O)c1c(F)cccc1-2)N1CCOCC1 (single isomer, unassigned) [Example 354, 6-fluoro-3-(morpholin-4-ylcarbonyl)-1-{1-[2-(tetrahydro-2H-pyran-4-yl)ethyl]pyrrolidin-3-yl}-1,4-dihydrothiochromeno[4,3-c]pyrazole 5,5-dioxide hydrochloride salt]
72	O=C(c1nn(C2CCCN(CCN3CC[C@H](F)C3)C2)c2c1CS(=O)(=O)c1ccccc1-2)N1CCOCC1 (single isomer, unassigned) [Example 282]
34	O=C(c1nn([C@H]2CCCN(CCC3CCOCC3)C2)c2c1CS(=O)(=O)c1ccccc1-2)N1CCOCC1 (single isomer, unassigned) [Example 306, 3-(morpholin-4-ylcarbonyl)-1-{1-[2-(tetrahydro-2H-pyran-4-yl)ethyl]piperidin-3-yl}-1,4-dihydrothiochromeno[4,3-c]pyrazole 5,5-dioxide]
27	COc1ccc2c(c1)S(=O)(=O)Cc1c(C(=O)N3CCOCC3)nn([C@H]3CCCN(CCC4CCOCC4)C3)c1-2 (single isomer, unassigned) [Example 369]
25	O=C(c1nn([C@H]2CCCN(CCN3CCC(F)CC3)C2)c2c1CS(=O)(=O)c1ccccc1-2)N1CCOCC1 (single isomer, unassigned) [Example 363, 1-{1-[2-(4-fluoropiperidin-1-yl)ethyl]piperidin-3-yl}-3-(morpholin-4-ylcarbonyl)-1,4-dihydrothiochromeno[4,3-c]pyrazole 5,5-dioxide]
17	O=C(c1nn([C@H]2CCCN(CCN3CC(F)(F)C3)C2)c2c1CS(=O)(=O)c1ccccc1-2)N1CCOCC1 (single isomer, unassigned) [Example 362, 1-{1-[2-(3,3-difluoroazetidin-1-yl)ethyl]piperidin-3-yl}-3-(morpholin-4-ylcarbonyl)-1,4-dihydrothiochromeno[4,3-c]pyrazole 5,5-dioxide]
